From patent publication USRE39072E1, “2-aminopropane-1,3-diol compounds, medicinal use thereof, and intermediates in synthesizing the same” (Mitsubishi Pharma Corporation, priority 1997, dated 2006)

Tests used:
[1] = tested on: allogenic skin graft (LEW rat to F344 rat); assay: Allogenic skin graft in rats, LEW rat skin to F344 rat; format: in vivo
Excerpt: EXPERIMENTAL EXAMPLE 12 (Prolonging effect of skin graft on allogenic skin graft in rats)
(§1) A full-thickness skin graft (1.5×1.5 cm) of a 4-week-old male WKAH rat or LEW rat is grafted to a graft to a graft bed on the back of a 4-week-old male F344 rat by suture. The graft is covered with a sterile gauze and bound. The bandage is removed 5 days after the grafting and the skin graft is observed daily until it is rejected. […] The number of days from the grafting to rejection is taken as a graft survival days. Test compounds are intraperitoneally, intravenously or orally administered repeatedly once a day for 14 days.

[2] = tested on: allogenic skin graft (WKAH rat to F344 rat); assay: Allogenic skin graft in rats, WKAH rat skin to F344 rat; format: in vivo; conditions: oral; for mean survival time of skin graft: once a day for 14 days, dose 1 mg/kg or 10 mg/kg (FIG. 1), not stated which
Excerpt: as §1
The comparative compound 1 was 2-amino-2-(2-(4-(4-phenylbutyloxy)phenyl)ethyl)propane-1,3-diol disclosed in WO94/08943, comparative compound 2 was 2-amino-2-methyl-2-(2-(4-(4-phenylbutyloxy)phenyl)butanol disclosed in WO96/06068.

[3] = Body weight change on allogenic skin graft in rats; format: in vivo, rat; conditions: 13 days of consecutive repeat oral administration of 10 mg/kg, rats of allogenic skin graft test (FIG. 2)
Protocol: (Body weight change on allogenic skin graft in rats)
The changes in body weight in rats of Experimental Example 12 on testing of allogenic skin graft in rats, after 13 days of consecutive repeat oral administration of 10 mg/kg of test compounds are shown in FIG. 2.

SMILES | prolonging effect on graft survival compared to control group administered with vehicle alone [1] | mean survival time of skin graft ([1]; dose not stated) [days] | prolonging effect on graft survival compared with comparative compound 2 [2] | prolonging effect on graft survival days compared to control group and comparative compound 1 group [2] | mean survival time of skin graft [2] [days] | change in body weight [3]
NC(CO)(CO)CCc1ccc(C(=O)CCCCc2ccccc2)cc1 [Compound (I-a), 2-amino-2-(2-(4-(1-oxo-5-phenylpentyl)phenyl)ethyl)propane-1,3-diol] | statistically significant prolonging effect | ≥ 20 | equivalent prolonging effect | prolonged graft survival days statistically significantly | 16.6 ± 1.2 | natural gain of body weight as in the control group
NC(CO)(CO)CCc1ccc(OCCCCc2ccccc2)cc1 [comparative compound 1, 2-amino-2-(2-(4-(4-phenylbutyloxy)phenyl)ethyl)propane-1,3-diol, reference compound] | – | – | – | – | 11.9 ± 0.7 | a suppressive effect on the gain of the body weight
CC(N)(CO)CCc1ccc(OCCCCc2ccccc2)cc1 (stereo not shown) [comparative compound 2, reference compound] | – | – | – | – | 15.6 ± 1.4 | a suppressive effect on the gain of the body weight
